Measured values taken from patent publication US20160002204A1 (Board of Regents, The University of Texas System, priority 2014, published 2016).

How the values were obtained:
[1] = biological target: T1, GLS1 (purified recombinant human GAC) (Homo sapiens, UniProt O94925); assay: GLS1 enzymatic activity assay (dual-coupled, Amplex UltraRed/resorufin); type: biochemical
T1 sequence (O94925 55-598 isoform O94925-3 limits assumed): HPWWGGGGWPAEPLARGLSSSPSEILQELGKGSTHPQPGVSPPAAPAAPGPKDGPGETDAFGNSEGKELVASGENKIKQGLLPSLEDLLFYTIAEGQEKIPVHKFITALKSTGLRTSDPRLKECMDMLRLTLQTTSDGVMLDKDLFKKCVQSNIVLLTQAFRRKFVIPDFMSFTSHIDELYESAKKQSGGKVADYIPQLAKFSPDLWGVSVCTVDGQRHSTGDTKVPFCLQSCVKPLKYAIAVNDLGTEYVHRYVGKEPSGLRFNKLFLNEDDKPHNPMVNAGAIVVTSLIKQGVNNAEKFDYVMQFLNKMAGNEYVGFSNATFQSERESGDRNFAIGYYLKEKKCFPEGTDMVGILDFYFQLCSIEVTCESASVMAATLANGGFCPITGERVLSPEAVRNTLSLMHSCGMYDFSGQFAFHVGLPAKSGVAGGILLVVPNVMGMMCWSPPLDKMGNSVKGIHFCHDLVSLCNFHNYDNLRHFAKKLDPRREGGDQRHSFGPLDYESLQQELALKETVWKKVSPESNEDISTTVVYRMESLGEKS
Procedure, shortened: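 In this coupled fluorometric format, phosphate-activated GAC (2 nM, 50 mM phosphate) is pre-exposed to compound for 10 min before 1 mM glutamine addition. Product is tracked as resorufin (530/590 nm) over time or at 20 min, and potency is derived by logistic fitting.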

A549 cells = assay: A549 proliferation (viability) assay, Cell Titer Fluor, 72 hours; type: cell-based; conditions: Homo sapiens
Procedure, shortened: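 A549 cells in RPMI 1640 with 10% dialyzed FBS were seeded at 1000 cells/well, grown 24 h, then exposed to compound (0.5% DMSO final) for 72 h at 37 °C, 5% CO2. Viability was read by Cell Titer Fluor fluorescence; EC50 from four-parameter logistic fit.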

IC50 [1] [µM]	EC50 (A549 cells) [µM]	Compound
< 0.1	0.1 to 0.5	O=C(CN1CC(F)(F)C1)Nc1ccn(CCC(F)Cn2cc(C(=O)NCc3cccc(OC(F)(F)F)c3)nn2)c(=O)c1 (stereo not shown) [Example 232, 1-(4-{4-[2-(3,3-difluoroazetidin-1-yl)acetamido]-2-oxo-1,2-dihydropyridin-1-yl}-2-fluorobutyl)-N-{[3-(trifluoromethoxy)phenyl]methyl}-1H-1,2,3-triazole-4-carboxamide]
< 0.1	0.5 to 5	CC(C)(C)OC(=O)Nc1ccn(CCC(F)Cn2cc(C(=O)NCc3cc(Cl)ccc3F)nn2)c(=O)c1 (stereo not shown) [Example 233, tert-butyl N-{1-[4-(4-{[(5-chloro-2-fluorophenyl)methyl]carbamoyl}-1H-1,2,3-triazol-1-yl)-3-fluorobutyl]-2-oxo-1,2-dihydropyridin-4-yl}carbamate]
< 0.1	0.1 to 0.5	CC(C)(C)OC(=O)Nc1ccn(CCC(F)Cn2cc(C(=O)NCc3cccc(OC(F)(F)F)c3)nn2)c(=O)c1 (stereo not shown) [Example 234, tert-butyl N-(1-{3-fluoro-4-[4-({[3-(trifluoromethoxy)phenyl]methyl]carbamoyl)-1H-1,2,3-triazol-1-yl]butyl}-2-oxo-1,2-dihydropyridin-4-yl)carbamate]
< 0.1	0.5 to 5	N#Cc1cccc(CC(=O)Nc2ccn(CCC(F)Cn3cc(C(=O)NCc4cccc(OC(F)(F)F)c4)nn3)c(=O)c2)c1 (stereo not shown) [Example 235, 1-(4-{4-[2-(3-cyanophenyl)acetamido]-2-oxo-1,2-dihydropyridin-1-yl}-2-fluorobutyl)-N-{[3-(trifluoromethoxy)phenyl]methyl}-1H-1,2,3-triazole-4-carboxamide]
< 0.1	0.5 to 5	O=C(Cc1cccnc1Cl)Nc1ccn(CCC(F)Cn2cc(C(=O)NCc3cccc(OC(F)(F)F)c3)nn2)c(=O)c1 (stereo not shown) [Example 236, 1-(4-{4-[2-(2-chloropyridin-3-yl)acetamido]-2-oxo-1,2-dihydropyridin-1-yl}-2-fluorobutyl)-N-{[3-(trifluoromethoxy)phenyl]methyl}-1H-1,2,3-triazole-4-carboxamide]
< 0.1	0.1 to 0.5	O=C(Cc1cccc(N2CCOCC2)c1)Nc1ccn(CCC(F)Cn2cc(C(=O)NCc3cccc(OC(F)(F)F)c3)nn2)c(=O)c1 (stereo not shown) [Example 237, 1-[2-fluoro-4-(4-{2-[3-(morpholin-4-yl)phenyl]acetamido}-2-oxo-1,2-dihydropyridin-1-yl)butyl]-N-{[3-(trifluoromethoxy)phenyl]methyl}-1H-1,2,3-triazole-4-carboxamide]
< 0.1	0.1 to 0.5	O=C(Cc1ccc(Cl)nc1)Nc1ccn(CCC(F)Cn2cc(C(=O)NCc3cccc(OC(F)(F)F)c3)nn2)c(=O)c1 (stereo not shown) [Example 238, 1-(4-{4-[2-(6-chloropyridin-3-yl)acetamido]-2-oxo-1,2-dihydropyridin-1-yl}-2-fluorobutyl)-N-{[3-(trifluoromethoxy)phenyl]methyl}-1H-1,2,3-triazole-4-carboxamide]
< 0.1	< 0.1	CC(C)(C)OC(=O)N[C@H]1CC[C@H](CC(=O)Nc2ccn(CCC(F)Cn3cc(C(=O)NCc4cccc(OC(F)(F)F)c4)nn3)c(=O)c2)CC1 (stereo partly shown) [Example 239, tert-butyl N-[(1r,4r)-4-{[(1-{3-fluoro-4-[4-({[3-(trifluoromethoxy)phenyl]methyl}carbamoyl)-1H-1,2,3-triazol-1-yl]butyl}-2-oxo-1,2-dihydropyridin-4-yl)carbamoyl]methyl}cyclo-hexyl]carbamate]
< 0.1	0.5 to 5	COc1ccc(CC(=O)Nc2ccn(CCC(F)Cn3cc(C(=O)NCc4cccc(OC(F)(F)F)c4)nn3)c(=O)c2)cn1 (stereo not shown) [Example 240, 1-(2-fluoro-4-{4-[2-(6-methoxypyridin-3-yl)acetamido]-2-oxo-1,2-dihydropyridin-1-yl}butyl)-N-{[3-(trifluoromethoxy)phenyl]methyl}-1H-1,2,3-triazole-4-carboxamide]
< 0.1	< 0.1	CC(C)(C)OC(=O)N[C@H]1CC[C@@H](CC(=O)Nc2ccn(CCC(F)Cn3cc(C(=O)NCc4cccc(OC(F)(F)F)c4)nn3)c(=O)c2)CC1 (stereo partly shown) [Example 241, tert-butyl N-[(1s,4s)-4-{[(1-{3-fluoro-4-[4-({[3-(trifluoromethoxy)phenyl]methyl}carbamoyl)-1H-1,2,3-triazol-1-yl]butyl}-2-oxo-1,2-dihydropyridin-4-yl)carbamoyl]methyl}cyclohexyl]carbamate]
< 0.1	0.1 to 0.5	O=C(CC1CCN(CC(F)F)CC1)Nc1ccn(CCC(F)Cn2cc(C(=O)NCc3cccc(OC(F)(F)F)c3)nn2)c(=O)c1 (stereo not shown) [Example 242, 1-[4-(4-{2-[1-(2,2-difluoroethyl)piperidin-4-yl]acetamido}-2-oxo-1,2-dihydropyridin-1-yl)-2-fluorobutyl]-N-{[3-(trifluoromethoxy)phenyl]methyl}-1H-1,2,3-triazole-4-carboxamide]
< 0.1	0.1 to 0.5	O=C(Cc1ncc(Cl)cc1F)Nc1ccn(CCC(F)Cn2cc(C(=O)NCc3cccc(OC(F)(F)F)c3)nn2)c(=O)c1 (stereo not shown) [Example 243, 1-(4-{4-[2-(5-chloro-3-fluoropyridin-2-yl)acetamido]-2-oxo-1,2-dihydropyridin-1-yl}-2-fluorobutyl)-N-{[3-(trifluoromethoxy)phenyl]methyl}-1H-1,2,3-triazole-4-carboxamide]
< 0.1	0.5 to 5	CC(=O)N1CCC(CC(=O)Nc2ccn(CCC(F)Cn3cc(C(=O)NCc4cccc(OC(F)(F)F)c4)nn3)c(=O)c2)CC1 (stereo not shown) [Example 244, 1-(4-{4-[2-(1-acetylpiperidin-4-yl)acetamido]-2-oxo-1,2-dihydropyridin-1-yl}-2-fluorobutyl)-N-{[3-(trifluoromethoxy)phenyl]methyl}-1H-1,2,3-triazole-4-carboxamide]
< 0.1	< 0.1	CC(C)(C)OC(=O)N1CCCC(CC(=O)Nc2ccn(CCC(F)Cn3cc(C(=O)NCc4cccc(OC(F)(F)F)c4)nn3)c(=O)c2)C1 (stereo not shown) [Example 245, tert-butyl 3-{[(1-{3-fluoro-4-[4-({[3-(trifluoromethoxy)phenyl]methyl}carbamoyl)-1H-1,2,3-triazol-1-yl]butyl}-2-oxo-1,2-dihydropyridin-4-yl)carbamoyl]methyl}piperidine-1-carboxylate]
< 0.1	0.5 to 5	O=C(Cc1cccnc1)Nc1ccn(CCC(F)Cn2cc(C(=O)NCc3cccc(OC(F)(F)F)c3)nn2)c(=O)c1 (stereo not shown) [Example 246, 1-(2-fluoro-4-{2-oxo-4-[2-(pyridin-3-yl)acetamido]-1,2-dihydropyridin-1-yl}butyl)-N-{[3-(trifluoromethoxy)phenyl]methyl}-1H-1,2,3-triazole-4-carboxamide]
< 0.1	0.5 to 5	O=C(Cc1cscn1)Nc1ccn(CCC(F)Cn2cc(C(=O)NCc3cccc(OC(F)(F)F)c3)nn2)c(=O)c1 (stereo not shown) [Example 247, 1-(2-fluoro-4-{2-oxo-4-[2-(1,3-thiazol-4-yl)acetamido]-1,2-dihydropyridin-1-yl}butyl)-N-{[3-(trifluoromethoxy)phenyl]methyl}-1H-1,2,3-triazole-4-carboxamide]
< 0.1	0.5 to 5	Cc1ccc(CC(=O)Nc2ccn(CCC(F)Cn3cc(C(=O)NCc4cccc(OC(F)(F)F)c4)nn3)c(=O)c2)cn1 (stereo not shown) [Example 248, 1-(2-fluoro-4-{4-[2-(6-methylpyridin-3-yl)acetamido]-2-oxo-1,2-dihydropyridin-1-yl}butyl)-N-{[3-(trifluoromethoxy)phenyl]methyl}-1H-1,2,3-triazole-4-carboxamide]
